Measured values as given in ChEMBL document CHEMBL2021828, “An approach for differentiating isozymes. Construction of libraries containing short aromatic peptides as part of a method to design selective inhibitors against lipases” (Bioorg Med Chem Lett, 2012).
Active and inactive are the calls of the source. The calls are words filed in the database; no cut-off is given here.

Key:
Chromobacterium viscosum [1] = test: Activity of Chromobacterium viscosum lipase using p-nitrophenylbutyrate as substrate by Lineweaver-Burk plot analysis
[2] = biological target: T1, Lipase (Thermomyces lanuginosus) (UniProt O59952); test: Activity of Thermomyces lanuginosus lipase using p-nitrophenylbutyrate as substrate by Lineweaver-Burk plot analysis
T1 sequence (whole entry): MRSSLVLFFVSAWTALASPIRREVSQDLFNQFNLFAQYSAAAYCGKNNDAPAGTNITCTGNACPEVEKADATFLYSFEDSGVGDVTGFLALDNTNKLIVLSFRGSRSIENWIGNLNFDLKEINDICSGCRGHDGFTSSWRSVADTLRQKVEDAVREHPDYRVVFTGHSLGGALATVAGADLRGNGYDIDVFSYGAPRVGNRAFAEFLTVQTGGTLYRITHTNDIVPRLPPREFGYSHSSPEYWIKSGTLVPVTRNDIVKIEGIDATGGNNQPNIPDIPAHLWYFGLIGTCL

[3] = biological target: T2, Pancreatic triacylglycerol lipase (Sus scrofa) (UniProt P00591); test: Activity of porcine pancreatic lipase using p-nitrophenylbutyrate as substrate by Lineweaver-Burk plot analysis
T2 sequence (whole entry): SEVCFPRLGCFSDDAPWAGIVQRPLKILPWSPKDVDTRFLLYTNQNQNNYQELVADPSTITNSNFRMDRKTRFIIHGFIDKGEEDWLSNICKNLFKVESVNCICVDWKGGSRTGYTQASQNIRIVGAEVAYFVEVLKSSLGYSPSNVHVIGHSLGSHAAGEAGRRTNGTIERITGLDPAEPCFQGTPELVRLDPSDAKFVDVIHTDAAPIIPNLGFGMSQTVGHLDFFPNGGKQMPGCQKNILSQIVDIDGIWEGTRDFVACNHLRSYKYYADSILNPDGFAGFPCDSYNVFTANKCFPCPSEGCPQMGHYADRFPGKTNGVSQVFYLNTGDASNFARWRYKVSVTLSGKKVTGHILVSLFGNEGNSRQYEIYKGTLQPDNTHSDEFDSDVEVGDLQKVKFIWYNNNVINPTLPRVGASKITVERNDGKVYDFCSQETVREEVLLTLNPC

[4] = biological target: T3, Pancreatic triacylglycerol lipase (Homo sapiens) (UniProt P16233); test: Activity of human pancreatic lipase using p-nitrophenylbutyrate as substrate by Lineweaver-Burk plot analysis
T3 sequence (whole entry): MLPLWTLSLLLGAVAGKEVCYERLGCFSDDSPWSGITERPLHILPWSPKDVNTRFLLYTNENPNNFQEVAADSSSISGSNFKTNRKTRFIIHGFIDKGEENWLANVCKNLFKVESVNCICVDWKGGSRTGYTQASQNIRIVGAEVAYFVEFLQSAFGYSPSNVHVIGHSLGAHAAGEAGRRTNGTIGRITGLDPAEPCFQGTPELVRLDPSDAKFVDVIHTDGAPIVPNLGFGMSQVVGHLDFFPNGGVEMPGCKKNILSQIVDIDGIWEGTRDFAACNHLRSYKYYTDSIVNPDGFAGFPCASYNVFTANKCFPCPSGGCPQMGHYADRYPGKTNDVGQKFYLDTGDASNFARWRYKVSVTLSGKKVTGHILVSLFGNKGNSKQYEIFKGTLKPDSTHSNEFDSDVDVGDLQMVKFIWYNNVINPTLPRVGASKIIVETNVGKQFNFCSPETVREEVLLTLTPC

[5] = biological target: T4, Pancreatic triacylglycerol lipase (Homo sapiens, UniProt P16233); test: (§1) Inhibition of human pancreatic lipase using p-nitrophenylbutyrate as substrate by Dixon plot analysis
T4 sequence (P16233 whole entry): T3 sequence (whole entry)

[6] = biological target: T3, Pancreatic triacylglycerol lipase (Homo sapiens); test: as §1
[7] = biological target: T5, Pancreatic triacylglycerol lipase (Sus scrofa, UniProt P00591); test: (§2) Inhibition of porcine pancreatic lipase using p-nitrophenylbutyrate as substrate by Dixon plot analysis
T5 sequence (P00591 whole entry): T2 sequence (whole entry)

[8] = biological target: T2, Pancreatic triacylglycerol lipase (Sus scrofa); test: as §2
[9] = Solubility of the compound in buffer; assay type: physicochemical
[10] = Inhibition of Chromobacterium viscosum lipase using p-nitrophenylbutyrate as substrate by Dixon plot analysis
[11] = Discrimination ratio of Ki for Thermomyces lanuginosus lipase to Ki for Chromobacterium viscosum lipase
[12] = Discrimination ratio of Ki for porcine pancreatic lipase to Ki for Chromobacterium viscosum lipase
[13] = Discrimination ratio of Ki for human pancreatic lipase to Ki for Chromobacterium viscosum lipase
[14] = biological target: T1, Lipase (Thermomyces lanuginosus); test: Inhibition of Thermomyces lanuginosus lipase using p-nitrophenylbutyrate as substrate by Dixon pot analysis
Chromobacterium viscosum [15] = test: Activity of Chromobacterium viscosum lipase using p-nitrophenylbutyrate as substrate by Lineweaver-Burk plot analysis relative to control

Compound	Activity (Chromobacterium viscosum [1])	Activity [2]	Activity [3]	Activity [4]	further results
CCCC(=O)Oc1ccc(NC(=O)CCC(=O)N[C@@H](Cc2ccc(O)cc2)C(=O)N[C@@H](Cc2ccc(O)cc2)C(N)=O)cc1	Active	Active	Active	Active	–
CCCC(=O)Oc1ccc(NC(=O)CCC(=O)N[C@@H](Cc2ccc(O)cc2)C(=O)N[C@@H](Cc2c[nH]c3ccccc23)C(N)=O)cc1	Active	Active	Active	Active	–
CCCC(=O)Oc1ccc(NC(=O)CCC(=O)N[C@@H](Cc2c[nH]c3ccccc23)C(=O)N[C@@H](Cc2ccc(O)cc2)C(N)=O)cc1	Active	Active	Active	Active	–
CCCC(=O)Oc1ccc([N+](=O)[O-])cc1	–	–	–	–	Km (Chromobacterium viscosum [1]): 3500 µM
CCCCOc1ccc(NC(=O)CCC(=O)N[C@@H](Cc2ccccc2)C(=O)N[C@@H](Cc2ccc(O)cc2)C(N)=O)cc1	–	–	–	–	Ki [5]: 550 µM; inhibition [6]: inactive; Ki [7]: 160 µM; inhibition [8]: inactive; solubility [9]: soluble
CCCCCCCCCCOc1ccc(NC(=O)CCC(=O)N[C@@H](Cc2ccccc2)C(=O)N[C@@H](Cc2ccccc2)C(N)=O)cc1	–	–	–	–	solubility [9]: Insoluble
CCCC(=O)Oc1ccc(NC(=O)CCC(=O)N[C@@H](Cc2c[nH]c3ccccc23)C(=O)N[C@@H](Cc2ccccc2)C(N)=O)cc1	Active	Active	Active	Active	–
CCCCOc1ccc(NC(=O)CCC(=O)N[C@@H](Cc2ccc(O)cc2)C(=O)N[C@@H](Cc2ccccc2)C(N)=O)cc1	–	–	–	–	Ki [5]: 170 µM; inhibition [6]: inactive; Ki [7]: 71 µM; inhibition [8]: inactive
CCCCCCCOc1ccc(NC(=O)CCC(=O)N[C@@H](Cc2ccccc2)C(=O)N[C@@H](Cc2ccccc2)C(N)=O)cc1	–	–	–	–	Ki [7]: 39 µM; Ki [10]: 0.37 µM; solubility [9]: Insoluble
NC(=O)[C@H](Cc1ccccc1)NC(=O)[C@H](Cc1ccccc1)NC(=O)CCC(=O)Nc1ccc(O)cc1	–	–	–	–	Ki [10]: 37 µM; Ratio Ki [11]: > 160; Ratio Ki [12]: > 160; Ratio Ki [13]: > 160
CCCC(=O)Oc1ccc(NC(=O)CCC(=O)N[C@@H](Cc2ccccc2)C(=O)N[C@@H](Cc2ccccc2)C(N)=O)cc1	Active	Active	Active	Active	inhibition [14]: inactive; Km (Chromobacterium viscosum [1]): 180 µM; inhibition [6]: inactive; inhibition [8]: inactive; Ki [10]: 37 µM; Ratio Ki [11]: > 160; Ratio Ki [12]: > 160; fold change (FC) (Chromobacterium viscosum [15]): 20; Ratio Ki [13]: > 160
CCCC(=O)Oc1ccc(NC(=O)CCC(=O)N[C@@H](Cc2ccccc2)C(=O)N[C@@H](Cc2ccc(O)cc2)C(N)=O)cc1	Active	Active	Active	Active	–
CCCC(=O)Oc1ccc(NC(=O)CCC(=O)N[C@@H](Cc2c[nH]c3ccccc23)C(=O)N[C@@H](Cc2c[nH]c3ccccc23)C(N)=O)cc1	Active	Active	Active	Active	–
CCCC(=O)Oc1ccc(NC(=O)CCC(=O)N[C@@H](Cc2ccccc2)C(=O)N[C@@H](Cc2c[nH]c3ccccc23)C(N)=O)cc1	Active	Active	Active	Active	–
CCCCOc1ccc(NC(=O)CCC(=O)N[C@@H](Cc2ccccc2)C(=O)N[C@@H](Cc2ccccc2)C(N)=O)cc1	–	–	–	–	inhibition [6]: inactive; inhibition [8]: inactive; Ki [10]: 2.6 µM; Ratio Ki [11]: 84; Ratio Ki [12]: 140; fold change (FC) (Chromobacterium viscosum [15]): 20; Ratio Ki [13]: 140
CCCC(=O)Oc1ccc(NC(=O)CCC(=O)N[C@@H](Cc2ccc(O)cc2)C(=O)N[C@@H](Cc2ccccc2)C(N)=O)cc1	Active	Active	Active	Active	–
